Test results as given in patent US10251394B2, “Molecules having pesticidal utility, and intermediates, compositions, and processes, related thereto” (Dow AgroSciences LLC, priority 2016, dated 2019).

How the values were obtained:
Assay type in all cases: in vivo
[1] = system: Yellow Fever Mosquito (Aedes aegypti); assay: Bioassay on Yellow Fever Mosquito (YFM) larvae, 96-well plate; details: Table ABC
Protocol: Example C: Bioassays on Yellow Fever Mosquito (Aedes Aegypti, AEDSAE) (“YFM”)
Certain molecules disclosed in this document were tested against YFM using procedures described in the following paragraph. In the reporting of the results, the “GPA & YFM Rating Table” was used (See Table Section).
Master plates containing 400 μg of a molecule dissolved in 100 μL of dimethyl sulfoxide (DMSO) (equivalent to a 4000 ppm solution) are used. A master plate of assembled molecules contains 15 μL per well. To this plate, 135 μL of a 90:10 water:acetone mixture is added to each well. A robot (Biomek® NXP Laboratory Automation Workstation) is programmed to dispense 15 μL aspirations from the master plate into an empty 96-well shallow plate (“daughter” plate). There are 6 reps (“daughter” plates) created per master. The created daughter plates are then immediately infested with YFM larvae.
The day before plates are to be treated, mosquito eggs are placed in Millipore water containing liver powder to begin hatching (4 g. into 400 mL). After the daughter plates are created using the robot, they are infested with 220 μL of the liver powder/larval mosquito mixture (about 1 day-old larvae). After plates are infested with mosquito larvae, a non-evaporative lid is used to cover the plate to reduce drying. Plates are held at room temperature for 3 days prior to grading. After 3 days, each well is observed and scored based on mortality. The results are indicated in the table entitled “Table ABC: Biological Results” (See Table Section).

[2] = system: Cabbage Looper (Trichoplusia ni); assay: Bioassay on Cabbage Looper (CL), 128-well diet tray assay; details: Cabbage Looper, Table ABC, read-out: CL rating
How it was run: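 Second-instar larvae, one to five per well, placed on artificial diet surface-treated with 50 μg/cm^2 compound in acetone-water, eight wells per compound. Held 5-7 days at 25° C, 14:10 light-dark; percent mortality per well averaged across wells.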

[3] = system: Beet Armyworm (Spodoptera exigua); assay: Bioassay on Beet Armyworm (BAW), 128-well diet tray assay; details: Beet Armyworm, Table ABC, read-out: BAW rating
How it was run: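 Second-instar larvae (one to five per well) placed on artificial diet surface-treated with 50 μg/cm^2 test molecule in 90:10 acetone-water, dried, eight wells per molecule. Held at 25° C, 14:10 light-dark, five to seven days; percent mortality recorded per well and averaged across the eight wells.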

Row | Structure (SMILES) | YFM rating [1] | pest or weed control at 50 µg/cm2 [2] | pest or weed control at 50 µg/cm2 [3]
1 | CN(CC(F)(F)F)C(=O)C1(NC(=O)c2ccc(/C(F)=C/C(c3cc(Br)c(Cl)c(Br)c3)C(F)(F)F)cc2C(F)(F)F)CC1 (stereo not drawn) [F118, (Z)-4-(3-(4-Dibromo-4-chlorophenyl)-1,4,4,4-tetrafluorobut-1-en-1-yl)-N-(1-(methyl(2,2,2-trifluoroethyl)carbamoyl)cyclopropyl)-2-(trifluoromethyl)benzamide] | B (More than 0-Less than 80) | 50 to 100% | 50 to 100%
2 | Cc1cc(C(/C=C(\F)c2ccc(C(=O)NCC(=O)N(C)CC(F)(F)F)c(C(F)(F)F)c2)C(F)(F)F)cc(C)c1Cl (stereo not drawn) [F103, (Z)-4-(3-(4-Chloro-3,5-dimethylphenyl)-1,4,4,4-tetrafluorobut-1-en-1-yl)-N-(2-(methyl(2,2,2-trifluoroethyl)amino)-2-oxoethyl)-2-(trifluoromethyl)benzamide] | B (More than 0-Less than 80) | 50 to 100% | 50 to 100%
3 | O=C(NC1(C(=O)NCC(F)(F)F)CC1)c1ccc(/C(F)=C/C(c2cc(Cl)c(Br)c(Cl)c2)C(F)(F)F)cc1C(F)(F)F (stereo not drawn) [F60, (Z)-4-(3-(4-Bromo-3,5-dichlorophenyl)-1,4,4,4-tetrafluorobut-1-en-1-yl)-N-(1-((2,2,2-trifluoroethyl)carbamoyl)cyclopropyl)-2-(trifluoromethyl)benzamide] | A (80-100) | 50 to 100% | 50 to 100%
4 | O=C(CNC(=O)c1ccc(/C(F)=C/C(c2cc(Br)c(Cl)c(Br)c2)C(F)(F)F)cc1C(F)(F)F)NCC(F)(F)F (stereo not drawn) [F46, (Z)-4-(3-(3,5-Dibromo-4-chlorophenyl)-1,4,4,4-tetrafluorobut-1-en-1-yl)-N-(2-oxo-2-((2,2,2-trifluoroethyl)amino)ethyl)-2-(trifluoromethyl)benzamide] | A (80-100) | 50 to 100% | 50 to 100%
5 | Cc1cc(C(/C=C(\F)c2ccc(C(=O)N[C@H](C)C(=O)NCC(F)(F)F)c(C(F)(F)F)c2)C(F)(F)F)cc(C)c1Cl (stereo partly drawn) [F69, 4-((Z)-3-(4-Chloro-3,5-dimethylphenyl)-1,4,4,4-tetrafluorobut-1-en-1-yl)-N—((R)-1-oxo-1-((2,2,2-trifluoroethyl)amino)propan-2-yl)-2-(trifluoromethyl)benzamide] | A (80-100) | 50 to 100% | 50 to 100%
6 | CN(CC(F)(F)F)C(=O)C1(NC(=O)c2ccc(/C(F)=C/C(c3cc(Cl)c(F)c(Cl)c3)C(F)(F)F)cc2C(F)(F)F)CC1 (stereo not drawn) [F114, (Z)-4-(3-(3,5-Dichloro-4-fluorophenyl)-1,4,4,4-tetrafluorobut-1-en-1-yl)-N-(1-(methyl(2,2,2-trifluoroethyl)carbamoyl)cyclopropyl)-2-(trifluoromethyl)benzamide] | A (80-100) | 50 to 100% | 50 to 100%
7 | C[C@@H](NC(=O)c1ccc(/C(F)=C/C(c2ccc(Cl)c(Cl)c2)C(F)(F)F)cc1C(F)(F)F)C(=O)NCC(F)(F)F (stereo partly drawn) [F42, 4-((Z)-3-(3,4-Dichlorophenyl)-1,4,4,4-tetrafluorobut-1-en-1-yl)-N—((R)-1-oxo-1-((2,2,2-trifluoroethyl)amino)propan-2-yl)-2-(trifluoromethyl)benzamide] | A (80-100) | 50 to 100% | 50 to 100%
8 | O=C(NCC(=S)NCC(F)(F)F)c1ccc(/C(F)=C/C(c2cc(Cl)c(Cl)c(Cl)c2)C(F)(F)F)cc1C(F)(F)F (stereo not drawn) [PF94, (Z)-4-(1,4,4,4-tetrafluoro-3-(3,4,5-trichlorophenyl)but-1-en-1-yl)-N-(2-thioxo-2-((2,2,2-trifluoroethyl)amino)ethyl)-2-(trifluoromethyl)benzamide] | A (80-100) | 50 to 100% | 50 to 100%
9 | C[C@@H](NC(=O)c1ccc(/C(F)=C/C(c2cc(Cl)c(Br)c(Cl)c2)C(F)(F)F)cc1C(F)(F)F)C(=O)NCC(F)(F)F (stereo partly drawn) [F59, 4-((Z)-3-(4-Bromo-3,5-dichlorophenyl)-1,4,4,4-tetrafluorobut-1-en-1-yl)-N—((R)-1-oxo-1-((2,2,2-trifluoroethyl)amino)propan-2-yl)-2-(trifluoromethyl)benzamide] | A (80-100) | 50 to 100% | 50 to 100%
10 | O=C(NC1(C(=O)NCC(F)(F)F)CC1)c1ccc(/C(F)=C/C(c2cc(Br)c(Cl)c(Br)c2)C(F)(F)F)cc1C(F)(F)F (stereo not drawn) [F45, (Z)-4-(3-(3,5-Dibromo-4-chlorophenyl)-1,4,4,4-tetrafluorobut-1-en-1-yl)-N-(1-((2,2,2-trifluoroethyl)carbamoyl)cyclopropyl)-2-(trifluoromethyl)benzamide] | A (80-100) | 50 to 100% | 50 to 100%
11 | CN(CC(F)(F)F)C(=O)CN(C)C(=O)c1ccc(/C(F)=C/C(c2cc(Cl)c(Cl)c(Cl)c2)C(F)(F)F)cc1C(F)(F)F (stereo not drawn) [F99, (Z)—N-Methyl-N-(2-(methyl(2,2,2-trifluoroethyl)amino)-2-oxoethyl)-4-(1,4,4,4-tetrafluoro-3-(3,4,5-trichlorophenyl)but-1-en-1-yl)-2-(trifluoromethyl)benzamide] | A (80-100) | 50 to 100% | 50 to 100%
12 | Cc1cc(C(/C=C(\F)c2ccc(C(=O)N[C@H](C)C(=O)NCC(F)(F)F)c(C(F)(F)F)c2)C(F)(F)F)cc(Cl)c1Cl (stereo partly drawn) [PF13] | B (More than 0-Less than 80) | 50 to 100% | 50 to 100%
13 | O=C(NC1(C(=O)NCC(F)(F)F)CC1)c1ccc(/C(F)=C/C(c2ccc(Cl)c(Br)c2)C(F)(F)F)cc1C(F)(F)F (stereo not drawn) [F139, (Z)-4-(3-(3-Bromo-4-chlorophenyl)-1,4,4,4-tetrafluorobut-1-en-1-yl)-N-(1-((2,2,2-trifluoroethyl)carbamoyl)cyclopropyl)-2-(trifluoromethyl)benzamide] | A (80-100) | 50 to 100% | 50 to 100%
14 | CN(CC(F)(F)F)C(=O)CNC(=O)c1ccc(/C(F)=C/C(c2ccc(Cl)c(Br)c2)C(F)(F)F)cc1C(F)(F)F (stereo not drawn) [PF35, (Z)-4-(3-(3-Bromo-4-chlorophenyl)-1,4,4,4-tetrafluorobut-1-en-1-yl)-N-(2-(methyl(2,2,2-trifluoroethyl)amino)-2-oxoethyl)-2-(trifluoromethyl)benzamide] | B (More than 0-Less than 80) | 50 to 100% | 50 to 100%
15 | C[C@@H](NC(=O)c1ccc(/C(F)=C/C(c2cc(Br)c(Cl)c(Br)c2)C(F)(F)F)cc1C(F)(F)F)C(=O)NCC(F)(F)F (stereo partly drawn) [F44, 4-((Z)-3-(3,5-Dibromo-4-chlorophenyl)-1,4,4,4-tetrafluorobut-1-en-1-yl)-N—((R)-1-oxo-1-((2,2,2-trifluoroethyl)amino)propan-2-yl)-2-(trifluoromethyl)benzamide] | A (80-100) | 50 to 100% | 50 to 100%
16 | C[C@@H](NC(=O)c1ccc(/C(F)=C/C(c2ccc(F)c(C(F)(F)F)c2)C(F)(F)F)cc1C(F)(F)F)C(=O)NCC(F)(F)F (stereo partly drawn) [F141, N—((R)-1-Oxo-1-((2,2,2-trifluoroethyl)amino)propan-2-yl)-4-((Z)-1,4,4,4-tetrafluoro-3-(4-fluoro-3-(trifluoromethyl)phenyl)but-1-en-1-yl)-2-(trifluoromethyl)benzamide] | A (80-100) | 50 to 100% | 50 to 100%
17 | Cc1cc(C(/C=C(\F)c2ccc(C(=O)NC3(C(=O)NCC(F)(F)F)CC3)c(C(F)(F)F)c2)C(F)(F)F)cc(Cl)c1Cl (stereo not drawn) [PF15] | B (More than 0-Less than 80) | 50 to 100% | 50 to 100%
18 | CN(CC(F)(F)F)C(=O)CNC(=O)c1ccc(/C(F)=C/C(c2ccc(Cl)c(Cl)c2)C(F)(F)F)cc1C(F)(F)F (stereo not drawn) [F74, (Z)-4-(3-(3,4-Dichlorophenyl)-1,4,4,4-tetrafluorobut-1-en-1-yl)-N-(2-(methyl(2,2,2-trifluoroethyl)amino)-2-oxoethyl)-2-(trifluoromethyl)benzamide] | A (80-100) | 50 to 100% | 50 to 100%
19 | O=C(CNC(=O)c1ccc(/C(F)=C/C(c2cc(F)cc(Cl)c2)C(F)(F)F)cc1C(F)(F)F)NCC(F)(F)F (stereo not drawn) [F157, (Z)-4-(3-(3-Chloro-5-fluorophenyl)-1,4,4,4-tetrafluorobut-1-en-1-yl)-N-(2-oxo-2-((2,2,2-trifluoroethyl)amino)ethyl)-2-(trifluoromethyl)benzamide] | A (80-100) | 50 to 100% | 50 to 100%
